Assays:
human recombinant BACE2 = human recombinant BACE2 (Homo sapiens (Human), UniProt Q9Y5Z0); assay: In vitro enzymatic BACE2 FRET assay; format: biochemical; settings: read-out: IC50 IP (μM) BACE2 enzyme
Summary of the method: (§1)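 FRET cleavage assay using Ni-NTA-purified recombinant protease and 50 nM quenched peptide substrate, 1 h. Stopped by neutralising with Tris; fluorescence at 488/590 nm.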

[1] = test system: Aβ40 in conditioned medium of cells stably expressing Amyloid Precursor Protein (APP); assay: In vitro BACE-1 cell-based assay (Aβ40 sandwich ELISA); settings: read-out: IC50 IP (μM) BACE1 cell
Summary of the method: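 APP-stable cells, pre-cultured 24 h at 37° C in DMEM/10% FBS, were treated 24 h with compound in a 10-point series starting at 100 μM or 10 μM (0.1% DMSO final). Secreted Aβ40 in conditioned medium was measured by pAb40/biotin-6E10 sandwich ELISA with Europium time-resolved fluorescence; IC50 from percent inhibition versus concentration.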

Recombinant Cat D = Recombinant Cat D (Homo sapiens (Human), UniProt P07339); assay: In vitro enzymatic Cathepsin D (Cat D) FRET assay; format: biochemical; settings: read-out: IC50 IP (μM) CatD
Summary of the method: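 Fluorescence at 500 nm excitation and 580 nm emission reports cleavage of a quenched fluorophore–quencher peptide (20 nM) by CHO-expressed Cat D. Reactions ran one hour in 0.05 M citrate pH 3.5, 5 mM CHAPS, 10% DMSO final before a Tris stop raised pH to neutrality.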

human recombinant BACE1 = human recombinant BACE1 (Homo sapiens (Human), UniProt P56817); assay: In vitro enzymatic BACE1 FRET assay; format: biochemical; settings: read-out: IC50 IP (μM) BACE1 enzyme
Summary of the method: as §1

human recombinant BACE2, sequence (Q9Y5Z0 63-518): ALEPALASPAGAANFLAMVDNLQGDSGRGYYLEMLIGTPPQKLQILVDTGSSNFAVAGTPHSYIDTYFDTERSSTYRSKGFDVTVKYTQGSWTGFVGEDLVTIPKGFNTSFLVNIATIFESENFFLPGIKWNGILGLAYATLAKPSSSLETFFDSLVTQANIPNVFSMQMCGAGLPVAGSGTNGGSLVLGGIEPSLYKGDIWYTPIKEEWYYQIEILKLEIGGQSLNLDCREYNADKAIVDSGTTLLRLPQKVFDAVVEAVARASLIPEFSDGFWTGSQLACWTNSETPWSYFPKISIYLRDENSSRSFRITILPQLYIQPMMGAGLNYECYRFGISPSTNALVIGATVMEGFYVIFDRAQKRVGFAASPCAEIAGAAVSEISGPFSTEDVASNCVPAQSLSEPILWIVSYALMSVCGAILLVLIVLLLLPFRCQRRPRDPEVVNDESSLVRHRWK
Recombinant Cat D, sequence (P07339 65-412): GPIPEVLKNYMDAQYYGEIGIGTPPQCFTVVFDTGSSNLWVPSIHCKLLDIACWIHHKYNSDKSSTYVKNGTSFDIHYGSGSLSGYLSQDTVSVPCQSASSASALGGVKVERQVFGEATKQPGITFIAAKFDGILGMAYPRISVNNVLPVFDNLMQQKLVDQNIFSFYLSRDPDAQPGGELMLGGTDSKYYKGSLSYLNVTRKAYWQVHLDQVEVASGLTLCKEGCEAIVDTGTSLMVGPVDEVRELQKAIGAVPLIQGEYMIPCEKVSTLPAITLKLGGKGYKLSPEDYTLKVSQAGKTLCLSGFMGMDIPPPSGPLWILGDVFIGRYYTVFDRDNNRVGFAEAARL
human recombinant BACE1, sequence (P56817 46-501): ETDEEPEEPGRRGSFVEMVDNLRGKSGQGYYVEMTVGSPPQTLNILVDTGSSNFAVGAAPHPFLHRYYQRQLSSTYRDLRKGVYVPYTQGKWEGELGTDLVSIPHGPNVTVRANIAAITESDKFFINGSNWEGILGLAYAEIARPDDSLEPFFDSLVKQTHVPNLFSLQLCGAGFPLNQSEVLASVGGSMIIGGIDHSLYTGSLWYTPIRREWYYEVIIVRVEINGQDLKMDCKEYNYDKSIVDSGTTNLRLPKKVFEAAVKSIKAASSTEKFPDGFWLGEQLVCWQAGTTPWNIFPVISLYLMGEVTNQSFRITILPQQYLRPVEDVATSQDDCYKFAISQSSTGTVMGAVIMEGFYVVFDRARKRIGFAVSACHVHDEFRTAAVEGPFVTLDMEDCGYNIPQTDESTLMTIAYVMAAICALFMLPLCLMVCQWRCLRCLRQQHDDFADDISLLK

Structure (SMILES) | IC50 (human recombinant BACE2) [µM] | IC50 [1] [µM] | IC50 (Recombinant Cat D) [µM] | IC50 (human recombinant BACE1) [µM]
C#CCOc1cnc(C(=O)Nc2ccc(F)c([C@@]3(C)N=C(N)S[C@@]4(CF)C[C@H]43)c2)c(C)c1 [Example 690, N-(3-((1S,5S,6S)-3-amino-1-(fluoromethyl)-5-methyl-2-thia-4-azabicyclo[4.1.0]hept-3-en-5-yl)-4-fluorophenyl)-3-methyl-5-(2-propyn-1-yloxy)-2-pyridinecarboxamide] | 0.026 | 0.00779 | 675 | 0.00418
C#CCOc1cnc(C(=O)Nc2cc(F)c(F)c([C@@]3(C)N=C(N)S[C@@]4(CF)C[C@H]43)c2)c(Cl)c1 [Example 691, N-(3-((1S,5S,6S)-3-amino-1-(fluoromethyl)-5-methyl-2-thia-4-azabicyclo[4.1.0]hept-3-en-5-yl)-4,5-difluorophenyl)-3-chloro-5-(2-propyn-1-yloxy)-2-pyridinecarboxamide] | 0.0231 | 0.00563 | 728 | 0.000673
C[C@]1(c2cc(NC(=O)c3ccc(OCC(F)(F)F)cn3)cc(F)c2F)N=C(N)S[C@@]2(CF)C[C@H]21 [Example 692, N-(3-((1S,5S,6S)-3-amino-1-(fluoromethyl)-5-methyl-2-thia-4-azabicyclo[4.1.0]hept-3-en-5-yl)-4,5-difluorophenyl)-5-(2,2,2-trifluoroethoxy)-2-pyridinecarboxamide] | 0.29 | 0.0453 | > 400 | 0.0053
C[C@]1(c2cc(NC(=O)c3ncc(OCC(F)(F)F)cc3Cl)cc(F)c2F)N=C(N)S[C@@]2(CF)C[C@H]21 [Example 693, N-(3-((1S,5S,6S)-3-amino-1-(fluoromethyl)-5-methyl-2-thia-4-azabicyclo[4.1.0]hept-3-en-5-yl)-4,5-difluorophenyl)-3-chloro-5-(2,2,2-trifluoroethoxy)-2-pyridinecarboxamide] | 0.246 | 0.0489 | 1200 | 0.00294
C[C@]1(c2cc(NC(=O)c3ccc(OCC(F)(F)F)cn3)cc(F)c2F)N=C(N)S[C@@]2(C(F)F)C[C@@H]12 [Example 695, N-(3-((1S,5S,6S)-3-amino-1-(difluoromethyl)-5-methyl-2-thia-4-azabicyclo[4.1.0]hept-3-en-5-yl)-4,5-difluorophenyl)-5-(2,2,2-trifluoroethoxy)-2-pyridinecarboxamide] | 0.263 | 0.0883 | > 400 | 0.00272
C[C@]1(c2cc(NC(=O)c3ccc(OCC(F)(F)F)cn3)ccc2F)N=C(N)S[C@@]2(C(F)F)C[C@@H]12 [Example 696, N-(3-((1S,5S,6S)-3-amino-1-(difluoromethyl)-5-methyl-2-thia-4-azabicyclo[4.1.0]hept-3-en-5-yl)-4-fluorophenyl)-5-(2,2,2-trifluoroethoxy)-2-pyridinecarboxamide] | 0.324 | 0.0707 | 846 | 0.0062
C[C@]1(c2cc(NC(=O)c3ccc(OCC(F)(F)F)cn3)cc(F)c2F)N=C(N)S[C@@]2(C(=O)N3CCCC3)C[C@H]21 [Example 699, N-(3-((1S,5S,6S)-3-amino-5-methyl-1-(1-pyrrolidinylcarbonyl)-2-thia-4-azabicyclo[4.1.0]hept-3-en-5-yl)-4,5-difluorophenyl)-5-(2,2,2-trifluoroethoxy)-2-pyridinecarboxamide] | 0.0524 | 0.0352 | 138 | 0.00106
CNC(=O)[C@]12C[C@H]1[C@@](C)(c1cc(NC(=O)c3ccc(OCC(F)(F)F)cn3)cc(F)c1F)N=C(N)S2 [Example 700, (1S,5S,6S)-3-amino-5-(2,3-difluoro-5-(((5-(2,2,2-trifluoroethoxy)-2-pyridinyl)carbonyl)amino)phenyl)-N,5-dimethyl-2-thia-4-azabicyclo[4.1.0]hept-3-ene-1-carboxamide] | 0.224 | 0.00826 | 569 | 0.00115
CNC(=O)[C@]12C[C@H]1[C@@](C)(c1cc(NC(=O)c3cnc(OCC(F)(F)F)cn3)cc(F)c1F)N=C(N)S2 [Example 701, (1S,5S,6S)-3-amino-5-(2,3-difluoro-5-(((5-(2,2,2-trifluoroethoxy)-2-pyrazinyl)carbonyl)amino)phenyl)-N,5-dimethyl-2-thia-4-azabicyclo[4.1.0]hept-3-ene-1-carboxamide] | 0.0782 | 0.00309 | 587 | 0.000943
CNC(=O)[C@]12C[C@H]1[C@@](C)(c1cc(NC(=O)c3ncc(OCC(F)(F)F)cc3C)cc(F)c1F)N=C(N)S2 [Example 702, (1S,5S,6S)-3-amino-5-(2,3-difluoro-5-(((3-methyl-5-(2,2,2-trifluoroethoxy)-2-pyridinyl)carbonyl)amino)phenyl)-N,5-dimethyl-2-thia-4-azabicyclo[4.1.0]hept-3-ene-1-carboxamide] | 0.269 | 0.0344 | 362 | 0.000986
C[C@]1(c2cc(Nc3ncnc4cc(C#N)cnc34)ccc2F)N=C(N)S[C@]2(CO)[C@H]1C2(F)F [Example 703, 4-((3-((1S,5S,6R)-3-amino-7,7-difluoro-1-(hydroxymethyl)-5-methyl-2-thia-4-azabicyclo[4.1.0]hept-3-en-5-yl)-4-fluorophenyl)amino)pyrido[3,2-d]pyrimidine-7-carbonitrile] | 0.011 | 0.0153 | 340 | 0.00594
C[C@]1(c2cc(NC(=O)c3ccc(Cl)cn3)ccc2F)N=C(N)S[C@]2(CO)[C@H]1C2(F)F [Example 704, N-(3-((1S,5S,6R)-3-amino-7,7-difluoro-1-(hydroxymethyl)-5-methyl-2-thia-4-azabicyclo[4.1.0]hept-3-en-5-yl)-4-fluorophenyl)-5-chloro-2-pyridinecarboxamide] | < 0.00203 | 0.00557 | 141 | 0.002
C[C@]1(c2cc(Nc3nccc4nc(OCc5cocn5)cnc34)ccc2F)N=C(N)S[C@]2(CO)[C@H]1C2(F)F [Example 706, ((1S,5S,6R)-3-amino-7,7-difluoro-5-(2-fluoro-5-((2-(1,3-oxazol-4-ylmethoxy)pyrido[3,4-b]pyrazin-5-yl)amino)phenyl)-5-methyl-2-thia-4-azabicyclo[4.1.0]hept-3-en-1-yl)methanol] | 0.0294 | 0.0086 | 354 | 0.00292
COC[C@@]12SC(N)=N[C@](C)(c3cc(Nc4ncnc5cc(C#N)cnc45)ccc3F)[C@@H]1C2(F)F [Example 709, 4-((3-((1S,5S,6R)-3-amino-7,7-difluoro-1-(methoxymethyl)-5-methyl-2-thia-4-azabicyclo[4.1.0]hept-3-en-5-yl)-4-fluorophenyl)amino)pyrido[3,2-d]pyrimidine-7-carbonitrile] | 0.0257 | 0.104 | 148 | 0.0092
COC[C@@]12SC(N)=N[C@](C)(c3cc(NC(=O)c4ccc(Cl)cn4)ccc3F)[C@@H]1C2(F)F [Example 710, N-(3-((1S,5S,6R)-3-amino-7,7-difluoro-1-(methoxymethyl)-5-methyl-2-thia-4-azabicyclo[4.1.0]hept-3-en-5-yl)-4-fluorophenyl)-5-chloro-2-pyridinecarboxamide] | < 0.00203 | 0.055 | 379 | 0.00599
CC(C)(O)[C@@]12SC(N)=N[C@](C)(c3cc(NC(=O)c4ccc(Cl)cn4)ccc3F)[C@@H]1C2(F)F [Example 711, N-(3-((1S,5S,6R)-3-amino-7,7-difluoro-1-(1-hydroxy-1-methylethyl)-5-methyl-2-thia-4-azabicyclo[4.1.0]hept-3-en-5-yl)-4-fluorophenyl)-5-chloro-2-pyridinecarboxamide] | < 0.00203 | 0.014 | 753 | 0.00311
C#CCOc1cnc2c(Nc3ccc(F)c([C@@]4(C)N=C(N)S[C@]5([C@@H](C)O)[C@H]4C5(F)F)c3)nccc2n1 [Example 713, (1R)-1-((1S,5S,6R)-3-amino-7,7-difluoro-5-(2-fluoro-5-((2-(2-propyn-1-yloxy)pyrido[3,4-b]pyrazin-5-yl)amino)phenyl)-5-methyl-2-thia-4-azabicyclo[4.1.0]hept-3-en-1-yl)ethanol] | 0.00394 | 0.00543 | 547 | 0.000864
C#CCOc1cnc2c(Nc3ccc(F)c([C@@]4(C)N=C(N)S[C@]5([C@H](C)O)[C@H]4C5(F)F)c3)nccc2n1 [Example 714, (1S)-1-((1S,5S,6R)-3-amino-7,7-difluoro-5-(2-fluoro-5-((2-(2-propyn-1-yloxy)pyrido[3,4-b]pyrazin-5-yl)amino)phenyl)-5-methyl-2-thia-4-azabicyclo[4.1.0]hept-3-en-1-yl)ethanol] | 0.00913 | 0.0109 | 613 | 0.00102
CCOC[C@]12C[C@H]1[C@@](CF)(c1cc(NC(=O)c3ncc(C#N)cc3C)ccc1F)N=C(N)S2 [Example 715, N-(3-((1S,5S,6S)-3-amino-1-(ethoxymethyl)-5-(fluoromethyl)-2-thia-4-azabicyclo[4.1.0]hept-3-en-5-yl)-4-fluorophenyl)-5-cyano-3-methyl-2-pyridinecarboxamide] | 0.00881 | 0.00635 | 918 | 0.00409

Source: US20160046618A1, “Cyclopropyl Fused Thiazin-2-Amine Compounds as Beta-Secretase Inhibitors and Methods of Use” (AMGEN INC., priority 2014, published 2016)
